Tests used:
RAW264.7 cells [1] = test: NO production inhibition test (LPS, Griess Method); format: cell-based, mouse
Experimental: A 200 microliter each of the continuously-cultivated RAW264.7 cells (10^6 cells/mL) should be seeded into 48-well plate. After 24 hours, replace the culture medium with a serum-free culture medium. Then, add the LPS (final concentration: 10 microgram/mL) and samples (Examples 1 & 2), and then cultivate for 24 hours. Collect the supernatant (100 microliter) and determine the amount of NO by the Griess Method.

RAW264.7 cells [2] = test: PGE2 produced by LPS stimulation in RAW264.7 cells; format: cell-based, mouse; settings: 0.1 microgram/mL, single substance, P<0.01 vs LPS group
Experimental: Suspend mouse-derived macrophage-like cells RAW264.7 in the culture medium “Minimum Essential Medium (MEM)” containing a 0.1 mM nonessential amino acid mixture, 10% fetal calf serum (FCS), penicillin (100 units/mL), and streptomycin (100 microgram/mL) in concentration of 1×10^6 cells/mL. Then, the cells were seeded into 48-well plate (200 microliter/well).
In 48 to 72 hours after the cultivation, vacuum the culture medium. Then clean the culture medium thrice with the serum-free culture medium (which contains no FCS). Then, add the serum-free culture medium (170 microliter) to each well.
After that, add the LPS solution (10 microlitre) which was prepared to 200 microgram/mL in the serum-free culture medium, to each well (final concentration 10 microgram/mL). Then, add the serum-free culture medium (10 microliter) to the well of the control group. Add 20 microliter each of the red ginger extract sample solution which was prepared to be the concentrations of […] in the serum-free culture medium, and add indomethacin in concentration of 8.9 microgram/mL (equivalent to 25 microM) to three wells, each. (The final concentrations of the red ginger extract are to be 0.1, 0.3, 1, 3, and 10 microgram/mL, and the final concentration of indomethacin is to be 0.89microgram/mL which is equivalent to 2.5 microM). […]

NO production = settings: concentration of 21.5 to 215 microgram/mL (FIG. 9); cited from earlier work

Row | SMILES | NO in supernatant (RAW264.7 cells [1]; 1 μg/mL, LPS 10 microgram/mL, 24 hours, average ± SD) [µM] | NO in supernatant (RAW264.7 cells [1]; 3 μg/mL) [µM] | NO in supernatant (RAW264.7 cells [1]; 10 μg/mL) [µM] | Inhibition ratio (NO production) (RAW264.7 cells [1]; 30 μg/mL) | NO in supernatant (RAW264.7 cells [1]; 30 μg/mL) [µM] | Inhibition ratio (NO production) (RAW264.7 cells [1]; 100 μg/mL) | NO in supernatant (RAW264.7 cells [1]; 100 μg/mL) [µM] | Inhibition ratio of PGE2 production (RAW264.7 cells [2]) [%] | Inhibitory effect on NO production (NO production)
1 | CCCCC[C@H](O)CC(=O)CCc1ccc(O)c(OC)c1 [Example 6-gingerol, 6-gingerol] | 3.50 ± 0.26 | 3.66 ± 0.33 | 3.27 ± 0.26 | (4.3) % | 3.11 ± 0.22 | (17.6) % | 2.81 ± 0.47 | 37.8 | 
2 | Cl.N[C@H]1C(O)O[C@H](CO)[C@@H](O)[C@@H]1O (stereo partly drawn) [glucosamine hydrochloride] |  |  |  |  |  |  |  |  | has the inhibitory effect on NO production
